pEC50, pIC50: −log10 of the molar value.
How the values were obtained:
[1] = Antagonist activity at mAChR in human CCRF-CEM cells assessed as decrease in acetylacholine-stimulated Ca2+ flux preincubated for 25 mins followed by acetylacholine addition measured for 90 secs by calcium dye-based fluorescence assay; assay type: cell-based
[2] = Permeability of the compound at pH 7.4 at 100 uM after 4 hrs by PAMPA
[3] = Permeability of the compound at pH 5.5 at 100 uM after 4 hrs by PAMPA
Cytochrome P450 2D6 = Cytochrome P450 2D6 (Homo sapiens, UniProt P10635); experiment: Inhibition of recombinant human CYP2D6 expressed in microsomes of insect cells using AMMC as substrate preincubated for 30 mins followed by NADP addition after 45 mins by fluorescence analysis
Sequence of Cytochrome P450 2D6 (P10635 whole entry): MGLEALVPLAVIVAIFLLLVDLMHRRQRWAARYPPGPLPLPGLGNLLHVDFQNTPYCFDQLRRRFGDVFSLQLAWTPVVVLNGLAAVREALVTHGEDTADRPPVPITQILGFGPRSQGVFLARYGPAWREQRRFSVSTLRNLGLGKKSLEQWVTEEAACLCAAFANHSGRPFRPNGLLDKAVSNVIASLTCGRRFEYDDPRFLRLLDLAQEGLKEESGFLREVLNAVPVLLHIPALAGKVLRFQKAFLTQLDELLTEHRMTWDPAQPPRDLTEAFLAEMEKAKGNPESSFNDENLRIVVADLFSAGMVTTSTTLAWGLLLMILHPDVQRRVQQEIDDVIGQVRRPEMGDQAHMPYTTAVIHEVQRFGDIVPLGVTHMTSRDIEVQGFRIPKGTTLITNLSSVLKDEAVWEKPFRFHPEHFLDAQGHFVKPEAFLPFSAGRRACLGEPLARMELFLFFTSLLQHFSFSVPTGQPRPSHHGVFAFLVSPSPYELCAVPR

[4] = Metabolic stability in human liver microsomes assessed as parent compound remaining at 0.5 uM after 10 mins in presence of NADPH by LC-MS/MS analysis
[5] = Metabolic stability in mouse liver microsomes assessed as parent compound remaining at 0.5 uM after 10 mins in presence of NADPH by LC-MS/MS analysis
[6] = biological target: T1, C-X-C chemokine receptor type 4 (Homo sapiens, UniProt P61073); experiment: Agonist activity at CXCR4 in human CCRF-CEM cells assessed as induction of Ca2+ flux measured for 90 secs by calcium dye-based fluorescence assay; assay type: functional, cell-based
T1 sequence (P61073 whole entry): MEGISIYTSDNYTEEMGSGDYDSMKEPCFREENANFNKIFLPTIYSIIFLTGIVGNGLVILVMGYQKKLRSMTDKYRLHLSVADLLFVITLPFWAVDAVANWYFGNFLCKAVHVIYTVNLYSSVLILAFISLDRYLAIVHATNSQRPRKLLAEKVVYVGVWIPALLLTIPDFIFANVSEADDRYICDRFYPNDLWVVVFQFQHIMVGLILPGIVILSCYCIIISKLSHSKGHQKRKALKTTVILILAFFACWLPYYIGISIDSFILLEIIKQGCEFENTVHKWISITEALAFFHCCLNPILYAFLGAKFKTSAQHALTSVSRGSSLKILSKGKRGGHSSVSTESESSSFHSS

[7] = Agonist activity at mAChR in human CCRF-CEM cells assessed as induction of Ca2+ flux measured for 90 secs by calcium dye-based fluorescence assay; assay type: cell-based
[8] = biological target: T1, C-X-C chemokine receptor type 4; experiment: Antagonist activity at human CXCR4 in CCRF-CEM cells assessed as decrease in SDF-1alpha stimulated Ca2+ flux preincubated for 25 mins followed by SDF-1alpha addition measured for 90 secs by calcium dye-based fluorescence assay; assay type: functional, cell-based
Cytochrome P450 3A4 = Cytochrome P450 3A4 (Homo sapiens, UniProt P08684); experiment: Inhibition of CYP3A4 (unknown origin)
Sequence of Cytochrome P450 3A4 (P08684 whole entry): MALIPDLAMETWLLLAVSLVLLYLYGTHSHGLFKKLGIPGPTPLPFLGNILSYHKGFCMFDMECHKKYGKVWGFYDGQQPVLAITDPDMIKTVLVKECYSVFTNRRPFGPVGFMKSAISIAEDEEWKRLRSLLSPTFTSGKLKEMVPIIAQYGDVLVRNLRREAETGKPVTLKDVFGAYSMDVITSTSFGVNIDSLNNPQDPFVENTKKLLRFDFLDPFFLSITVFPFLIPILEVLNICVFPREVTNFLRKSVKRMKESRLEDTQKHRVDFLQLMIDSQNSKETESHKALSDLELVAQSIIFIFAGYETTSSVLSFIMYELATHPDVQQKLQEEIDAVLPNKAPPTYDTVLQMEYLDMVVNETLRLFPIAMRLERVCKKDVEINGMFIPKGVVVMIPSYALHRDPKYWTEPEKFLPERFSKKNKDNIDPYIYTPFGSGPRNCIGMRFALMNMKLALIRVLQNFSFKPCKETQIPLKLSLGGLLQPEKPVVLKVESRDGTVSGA

[9] = Inhibition of CYP1A4 (unknown origin)
Cytochrome P450 2C19 = Cytochrome P450 2C19 (Homo sapiens, UniProt P33261); experiment: Inhibition of CYP2C19 (unknown origin)
Sequence of Cytochrome P450 2C19 (P33261 whole entry): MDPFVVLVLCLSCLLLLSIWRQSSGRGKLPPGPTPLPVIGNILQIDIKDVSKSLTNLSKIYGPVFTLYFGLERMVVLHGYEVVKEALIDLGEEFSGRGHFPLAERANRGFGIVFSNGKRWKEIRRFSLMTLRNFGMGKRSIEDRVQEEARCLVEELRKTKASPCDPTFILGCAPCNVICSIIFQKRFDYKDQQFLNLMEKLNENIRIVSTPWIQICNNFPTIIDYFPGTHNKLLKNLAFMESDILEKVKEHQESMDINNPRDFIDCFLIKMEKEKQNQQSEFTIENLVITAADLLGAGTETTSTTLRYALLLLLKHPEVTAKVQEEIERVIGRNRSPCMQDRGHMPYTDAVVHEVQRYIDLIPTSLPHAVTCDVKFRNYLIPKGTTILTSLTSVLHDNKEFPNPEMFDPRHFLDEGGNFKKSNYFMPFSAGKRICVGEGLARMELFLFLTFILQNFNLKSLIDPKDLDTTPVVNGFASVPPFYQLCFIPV

Cytochrome P450 2C8 = biological target: T2, Cytochrome P450 2C8 (Homo sapiens, UniProt P10632); experiment: Inhibition of CYP2C8 (unknown origin)
T2 sequence (P10632 whole entry): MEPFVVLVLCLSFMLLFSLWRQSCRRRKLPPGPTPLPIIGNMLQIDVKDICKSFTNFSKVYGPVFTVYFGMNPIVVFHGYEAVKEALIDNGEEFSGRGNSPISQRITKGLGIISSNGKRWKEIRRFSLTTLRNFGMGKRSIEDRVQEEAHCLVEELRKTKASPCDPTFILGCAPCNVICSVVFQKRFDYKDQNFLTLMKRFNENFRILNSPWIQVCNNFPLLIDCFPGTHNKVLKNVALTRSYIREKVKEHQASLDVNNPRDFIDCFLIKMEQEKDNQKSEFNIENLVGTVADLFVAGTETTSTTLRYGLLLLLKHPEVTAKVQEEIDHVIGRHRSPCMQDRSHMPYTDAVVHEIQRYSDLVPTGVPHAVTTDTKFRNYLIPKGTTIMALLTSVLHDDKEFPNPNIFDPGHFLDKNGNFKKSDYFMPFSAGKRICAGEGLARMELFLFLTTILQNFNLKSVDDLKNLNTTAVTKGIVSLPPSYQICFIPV

Cytochrome P450 2C9 = Cytochrome P450 2C9 (Homo sapiens, UniProt P11712); experiment: Inhibition of CYP2C9 (unknown origin)
Sequence of Cytochrome P450 2C9 (P11712 whole entry): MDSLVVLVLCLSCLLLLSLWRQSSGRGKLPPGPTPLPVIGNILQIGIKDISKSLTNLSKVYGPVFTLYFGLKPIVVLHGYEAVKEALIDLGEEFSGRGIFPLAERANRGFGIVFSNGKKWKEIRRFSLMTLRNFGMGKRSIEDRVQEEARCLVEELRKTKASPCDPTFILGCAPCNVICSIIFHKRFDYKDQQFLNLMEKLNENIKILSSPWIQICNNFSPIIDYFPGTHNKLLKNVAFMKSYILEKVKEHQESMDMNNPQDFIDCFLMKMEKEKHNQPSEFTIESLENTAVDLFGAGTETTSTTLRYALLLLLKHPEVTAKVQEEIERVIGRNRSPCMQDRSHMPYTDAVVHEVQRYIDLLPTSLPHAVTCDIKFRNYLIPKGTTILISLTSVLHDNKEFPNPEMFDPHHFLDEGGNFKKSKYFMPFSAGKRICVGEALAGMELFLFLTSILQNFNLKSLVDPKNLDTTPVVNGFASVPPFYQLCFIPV

Compound | pIC50 [1] | Papp at 4 h, 100 µM [2] [×10⁻⁶ cm/s] | Papp at 4 h, 100 µM [3] [×10⁻⁶ cm/s] | pIC50 (Cytochrome P450 2D6) | remaining at 10 min, 0.5 µM [4] [%] | remaining at 10 min, 0.5 µM [5] [%] | pEC50 [6] | pEC50 [7] | pIC50 [8] | pIC50 (Cytochrome P450 3A4) | pIC50 [9] | pIC50 (Cytochrome P450 2C19) | pIC50 (Cytochrome P450 2C8) | pIC50 (Cytochrome P450 2C9)
C(=C\CN(C[C@H]1Cc2ccccc2CN1)[C@H]1CCCc2cccnc21)/CNCc1ccccn1 | 4.66 | 5 | 1.8 | 6.15 | 31.2 | 2.98 | < 4.52 | < 4.52 |  |  |  |  |  | 
NCc1ccccc1CN(C[C@H]1Cc2ccccc2CN1)[C@H]1CCCc2cccnc21 | 5.92 | 21.4 | 18.4 | 6.50 | 50.5 | 1.29 | < 4.52 | < 4.52 | 7.29 |  |  |  |  | 
CC1(C)CCC(NCC(C)(C)CCN(C[C@H]2Cc3ccccc3CN2)[C@H]2CCCc3cccnc32)CC1 | 4.73 | 2.8 | 1.1 | 5.65 | 23.9 | 51.1 | < 4.52 | < 4.52 | 6.27 | 5.11 | > 5.30 | > 5.30 | > 5.30 | > 5.30
CC1(C)CCC(NC/C=C/CN(C[C@H]2Cc3ccccc3CN2)[C@H]2CCCc3cccnc32)CC1 | 5.61 |  |  | 6.18 | 42 | 7.71 | < 4.52 | < 4.52 |  | 6.00 |  |  |  | 
CC(C)(CN)CCN(C[C@H]1Cc2ccccc2CN1)[C@H]1CCCc2cccnc21 | < 4.78 | 40.5 |  | 6.30 | 88.7 | 51.2 | < 4.52 | < 4.52 | 7.16 | < 4.70 |  |  |  | 
c1ccc2c(c1)CN[C@@H](CN(CCCCNC1CCSCC1)[C@H]1CCCc3cccnc31)C2 | < 4.48 | 0.2 | 4.6 | 6.36 | 39.9 | 23.2 | < 4.52 | < 4.52 | 7.26 |  |  |  |  | 
CC(C)(CCN(C[C@H]1Cc2ccccc2CN1)[C@H]1CCCc2cccnc21)CNC1CCC(F)(F)CC1 | 4.73 | 2.2 | 1.75 | 5.69 | 16.1 | 16.8 | < 4.52 | < 4.52 | 6.77 |  | > 5.30 | > 5.30 | > 5.30 | > 5.30
c1ccc(CN(CCCCN(C[C@H]2Cc3ccccc3CN2)[C@H]2CCCc3cccnc32)Cc2ccccn2)nc1 | 4.89 | 29.4 | 4.8 | 5.94 | 0.548 | 0.374 | < 4.52 | < 4.52 | 6.18 |  |  |  |  | 
c1cncc(CN(CCCCN(C[C@H]2Cc3ccccc3CN2)[C@H]2CCCc3cccnc32)Cc2cccnc2)c1 | 4.94 | 43.5 | 9.1 | 6.46 | 0.432 | 1.4 | < 4.52 | < 4.52 | 6.33 |  |  |  |  | 
NC/C=C\CN(C[C@H]1Cc2ccccc2CN1)[C@H]1CCCc2cccnc21 | 6.22 | 56.9 | 3.9 | 6.48 | 100 | 4.36 | < 4.52 | < 4.52 | 8.03 |  |  |  |  | 
CC(C)(CCN)CN(C[C@H]1Cc2ccccc2CN1)[C@H]1CCCc2cccnc21 | < 4.48 | 25.5 | 26.8 | 6.71 | 76.1 | 5.22 | < 4.52 | < 4.52 | < 4.48 | 4.97 |  |  |  | 
NC/C=C/CN(C[C@H]1Cc2ccccc2CN1)[C@H]1CCCc2cccnc21 | < 4.78 | 82.9 | 26.4 | 6.29 | 100 | 10.7 | < 4.52 | < 4.52 | 6.89 |  |  |  |  | 
FC1(F)CCC(NC/C=C/CN(C[C@H]2Cc3ccccc3CN2)[C@H]2CCCc3cccnc32)CC1 | 5.16 | 4.9 | 0.9 | 5.84 | 31.7 | 2.12 | < 4.52 | < 4.52 |  |  |  |  |  | 
CC(C)(N)CCCN(C[C@H]1Cc2ccccc2CN1)[C@H]1CCCc2cccnc21 | < 4.78 |  | 2 | 6.46 | 73.5 | 3.32 | < 4.52 | < 4.52 | 7.61 | < 4.70 |  |  |  | 
c1ccc2c(c1)CN[C@@H](CN(CCCCNCC1CCCCC1)[C@H]1CCCc3cccnc31)C2 | < 4.78 | 0.9 | 2.1 | 6.45 | 50 | 41.8 | < 4.52 | < 4.52 | 6.80 |  |  |  |  | 
CC1(C)CCC(NCCCCN(C[C@H]2Cc3ccccc3CN2)[C@H]2CCCc3cccnc32)CC1 | 4.70 | 0.3 |  | 7.05 | 30.1 | 50 | < 4.52 | < 4.52 | 7.11 |  |  |  |  | 
c1ccc2c(c1)CN[C@@H](CN(CCCCN(Cc1ccncc1)Cc1ccncc1)[C@H]1CCCc3cccnc31)C2 | 4.94 | 77.4 | 18 | 6.92 | 0.521 | 1.55 | < 4.52 | < 4.52 | 6.08 | 6.21 |  |  |  | 

Reference: ChEMBL document CHEMBL4052827, “Discovery of Tetrahydroisoquinoline-Containing CXCR4 Antagonists with Improved in Vitro ADMET Properties” (J Med Chem, 2018)
